# Literature values in US20030073069A1, “Drug rescue by redesign of ADMET/PK properties” (priority 2001, published 2003).
# Read-outs that look alike come from different tables or passages of the source.
# Columns and labels:
# [1] = FIG. 8
# P450 [2] = tested on: P450
# P450 [3] = settings: induction of a P450
# [4] = development for memory enhancement abandoned
# CYP 3A4 = CYP 3A4 (Homo sapiens, UniProt P08684); settings: indicates a reactive intermediate formed by CYP 3A4 metabolism
# Sequence of CYP 3A4 (P08684 whole entry): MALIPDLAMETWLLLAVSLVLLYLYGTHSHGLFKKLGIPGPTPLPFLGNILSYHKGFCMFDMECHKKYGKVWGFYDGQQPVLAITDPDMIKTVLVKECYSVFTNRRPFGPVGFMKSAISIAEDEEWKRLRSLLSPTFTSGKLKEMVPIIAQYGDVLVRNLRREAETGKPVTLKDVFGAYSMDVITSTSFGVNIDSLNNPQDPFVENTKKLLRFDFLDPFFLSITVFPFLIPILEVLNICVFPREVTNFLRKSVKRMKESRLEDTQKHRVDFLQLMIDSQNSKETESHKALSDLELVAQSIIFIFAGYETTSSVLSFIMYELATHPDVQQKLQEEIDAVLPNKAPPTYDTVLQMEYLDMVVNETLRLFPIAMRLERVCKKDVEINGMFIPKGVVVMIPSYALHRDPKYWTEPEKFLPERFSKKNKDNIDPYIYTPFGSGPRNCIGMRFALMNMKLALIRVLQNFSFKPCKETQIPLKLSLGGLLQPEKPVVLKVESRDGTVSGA
SMILES,"No. of currently known drug interactions that involve the compound, Inhibition (P450 [2])","No. of currently known drug interactions that involve the compound, Induction (P450 [3])","No. of currently known drug interactions that involve the compound, Inhibition (P450 [2]; inhibition of a P450)",further results
CN(C)Cc1nnc2n1-c1ccc(Cl)cc1C(c1ccccc1)=NC2 [adinazolam],,,,"bioavailability, experimentally observed [1]: low; half lives, experimentally observed [1]: short"
Cc1nnc2n1-c1ccc(Cl)cc1C(c1ccccc1)=NC2 [alprazolam],15,3,,
CN(C)CCC=C1c2ccccc2CCc2ccccc21 [amitriptyline],,11,5,
NC(=O)N1c2ccccc2C=Cc2ccccc21 [carbamazepine],,9,3,
CNC1=Nc2ccc(Cl)cc2C(c2ccccc2)=[N+]([O-])C1 [chlordiazepoxide],7,3,,
CC[C@H]1OC(=O)[C@H](C)[C@@H](O[C@H]2C[C@@](C)(OC)[C@@H](O)[C@H](C)O2)[C@H](C)[C@@H](O[C@@H]2O[C@H](C)C[C@H](N(C)C)[C@H]2O)[C@](C)(OC)C[C@@H](C)C(=O)[C@H](C)[C@@H](O)[C@]1(C)O [clarithromycin],,1,1,
CN(C)CCCN1c2ccccc2CCc2ccc(Cl)cc21 [clomipramine],,11,5,
O=C1CN=C(c2ccccc2Cl)c2cc([N+](=O)[O-])ccc2N1 [clonazepam],10,3,,
O=C(O)C1N=C(c2ccccc2)c2cc(Cl)ccc2NC1=O (stereo not drawn) [clorazepate],7,3,,
CN1CCN(C2=Nc3cc(Cl)ccc3Nc3ccccc32)CC1 [clozapine],,1,2,
CNCCCN1c2ccccc2CCc2ccccc21 [desipramine],,1,4,
CN(C)CCC=C1c2ccccc2COc2ccccc21 [doxepin],,11,4,
Clc1ccc2c(c1)C(c1ccccc1)=NCc1nncn1-2 [estazolam],7,3,,
CCOC(=O)C1=C(C)NC(C)=C(C(=O)OC)C1c1cccc(Cl)c1Cl (stereo not drawn) [felodipine],,4,1,
CCN(CC)CCN1C(=O)CN=C(c2ccccc2F)c2cc(Cl)ccc21 [flurazepam],7,3,,
O=C1CN=C(c2ccccc2)c2cc(Cl)ccc2N1CC(F)(F)F [halazepam],7,3,,
C[C@]12CCC(=O)C=C1CC[C@@H]1[C@@H]2[C@@H](O)C[C@@]2(C)[C@H]1CC[C@]2(O)C(=O)CO [hydrocortisone],,14,1,
CN(C)CCCN1c2ccccc2CCc2ccccc21 [imipramine],,11,5,

SMILES,"No. of currently known drug interactions that involve the compound, Inhibition (P450 [2])","No. of currently known drug interactions that involve the compound, Induction (P450 [3])","No. of currently known drug interactions that involve the compound, Inhibition (P450 [2]; inhibition of a P450)",further results
CCC1(c2ccccc2)NC(=O)N(C)C1=O (stereo not drawn) [mephenytoin],,2,4,
C[C@H]1C[C@@H]2[C@H]([C@@H](O)C[C@@]3(C)[C@H]2CC[C@]3(O)C(=O)CO)[C@@]2(C)C=CC(=O)C=C12 [methylprednisolone],,14,1,
Cc1ncc2n1-c1ccc(Cl)cc1C(c1ccccc1F)=NC2 [midazolam],15,3,,"bioavailability, experimentally observed [1]: low; half lives, experimentally observed [1]: short"
COC(=O)C1=C(C)NC(C)=C(C(=O)OCC(C)C)C1c1ccccc1[N+](=O)[O-] (stereo not drawn) [nisoldipine],,4,3,
CNCCC=C1c2ccccc2CCc2ccccc21 [nortriptyline],,11,4,
O=C1NC(=O)C(c2ccccc2)(c2ccccc2)N1 [phenytoin],,1,4,
C[C@]12C=CC(=O)C=C1CC[C@@H]1[C@@H]2[C@@H](O)C[C@@]2(C)[C@H]1CC[C@]2(O)C(=O)CO [prednisolone],,10,1,
Fc1ccccc1C1=NCC(=S)N(CC(F)(F)F)c2ccc(Cl)cc21 [quazepam],7,3,,
C=C[C@H]1C[N@@]2CC[C@H]1C[C@@H]2[C@@H](O)c1ccnc2ccc(OC)cc12 [quinidine],,13,4,
C=CC[C@@H]1/C=C(\C)C[C@H](C)C[C@H](OC)[C@H]2O[C@@](O)(C(=O)C(=O)N3CCCC[C@H]3C(=O)O[C@H](/C(C)=C/[C@@H]3CC[C@@H](O)[C@H](OC)C3)[C@H](C)[C@@H](O)CC1=O)[C@H](C)C[C@@H]2OC [tacrolimus],,3,4,
CCCCCNC(=N)N/N=C/c1c[nH]c2ccc(OC)cc12 [tegaserod],,,,"ability to breach the Blood-Brain-Barrier, as found [4]: not to breach the Blood-Brain-Barrier"
C[C@]12C=CC(=O)C=C1CC[C@H]1[C@@H]3C[C@@H](O)[C@](O)(C(=O)CO)[C@@]3(C)C[C@H](O)[C@@]12F [triamcinolone],,10,,
Cc1nnc2n1-c1ccc(Cl)cc1C(c1ccccc1Cl)=NC2 [triazolam],15,3,,
CC(CN(C)C)CN1c2ccccc2CCc2ccccc21 (stereo not drawn) [trimipramine],,9,4,
Cc1c(C)c2c(c(C)c1O)CCC(C)(COc1ccc(CC3SC(=O)NC3=O)cc1)O2 (stereo not drawn) [troglitazone],,,,inhibition of CYP 3A4 (CYP 3A4): time and NADPH-dependent inhibition
CC(=O)CC(c1ccccc1)c1c(O)c2ccccc2oc1=O (stereo not drawn) [warfarin],,2,12,
Cc1ccc(-c2nc3ccc(C)cn3c2CC(=O)N(C)C)cc1 [zolpidem],2,2,,
